Experimental data reported in US7262218B2, “Forms of pravastatin sodium” (Teva Gyogyszergyar Zartkoruen Mukodo Reszvenytarsasag, priority 1999, dated 2007).

What was measured:
[1] = Solid-form stability on drying under vacuum (X-ray diffraction); assay type: physicochemical
Description: Most of these forms have a jelly appearance. By drying these samples at 60° C., vacuum overnight, the powdered Form D is obtained.
Pravastatin sodium (7 g) was dissolved in deionized water (13 ml) and diluted with acetone (14.3 ml). The resulting solution was stirred over charcoal (0.07 g.) to decolorize. The charcoal was removed by filtration and rinsed with a 10:1 mixture of acetone:water (15.7 ml). The combined pravastatin sodium solution and rinsate was then diluted with acetone (42.8 ml) and cooled to −10° C. At the reduced temperature, more acetone (143 ml) was slowly added over one half hour. The solution was then maintained at −10° C. for three hours during which time pravastatin sodium crystallized. The crystals were then isolated by filtration, washed with 1% water in acetone that had been pre-cooled to −10° C. (28 ml) and then again with anhydrous acetone (28 ml). The crystals were then dried under vacuum at 50° C. […]
Pravastatin crystals were filtered and washed with 160 L acetone containing 2% water and cooled to between 2-5° C. Then the wet cake was washed once more with 160 L of pure acetone. The product was dried under vacuum by gradual heating to 60° C. The crystals were identified by X-ray diffraction as Form L. The water content was 16.8% and the acetone content was 0%. After prolonged drying the water content was reduced to 10.7%. A mixture of Form L and D was identified.

[2] = Solid-form stability on exposure at 100% relative humidity (X-ray diffraction); assay type: physicochemical; settings: one week
Description: The water uptake at 80% relative humidity after 1 week was up to about 15%. After exposure at 100% relative humidity, all the forms of pravastatin sodium transform to Form C with about […].
Pravastatin sodium was exposed at 100% relative humidity for one week.

serum cholesterol levels = settings: human subjects with normal hepatic function and moderate body weight; daily dosages of 10 mg or more; cited from earlier work
[3] = Solid-form stability on storage at 40-80% relative humidity for two weeks (X-ray diffraction); assay type: physicochemical; settings: two weeks at relative humidity of between 40-80%
Description: Pravastatin sodium Form G may be prepared by storing pravastatin sodium Form F for 2 weeks at a relative humidity of about 40 to about 80%. […] The resulting solid was analyzed by X-ray diffraction without further treatment.

CC[C@H](C)C(=O)O[C@H]1C[C@H](O)C=C2C=C[C@H](C)[C@H](CC[C@@H](O)C[C@@H](O)CC(=O)O)[C@H]21 [Form J, pravastatin sodium]
crystal form after drying under vacuum overnight [1]: transformed to Form D

CC[C@H](C)C(=O)O[C@H]1C[C@H](O)C=C2C=C[C@H](C)C(CC[C@@H](O)C[C@@H](O)CC(=O)O)[C@H]21 (relative stereo) [Pravastatin sodium, [1S-[1α(β*,δ*)2α,6α,8β(R*),8aα]]-1,2,6,7,8,8a-hexahydro-β,δ,6-trihydroxy-2-methyl-8-(2-methyl-1-oxobutoxy)-1-naphthalene-heptanoic acid]
crystal form after exposure at 100% relative humidity [2]: found to be Form C
effect on serum cholesterol levels (serum cholesterol levels): reduction in serum cholesterol levels

CC[C@H](C)C(=O)O[C@H]1C[C@H](O)C=C2C=C[C@H](C)C(CC[C@@H](O)C[C@@H](O)CC(=O)O)[C@H]21 (some centres unmarked) [Form L, pravastatin sodium]
crystal form after drying under vacuum at 50° C. ([1]; dried under vacuum at 50° C. (Example 6)): after drying the crystals were Form D
crystal form after further drying under vacuum ([1]; vacuum, gradual heating to 60° C., further drying to 2.5% water content (Example 23)): transformed to pure Form D

CC[C@H](C)C(=O)O[C@H]1C[C@H](O)C=C2C=C[C@H](C)[C@H](CC[C@@H](O)C[C@@H](O)CC(=O)O)[C@H]21 [Form F, pravastatin sodium]
crystal form after storage at humidity [3]: Form G is obtained

CC[C@H](C)C(=O)O[C@H]1C[C@H](O)C=C2C=C[C@H](C)[C@H](CC[C@@H](O)C[C@@H](O)CC(=O)O)[C@H]21 [Form H, pravastatin sodium]
crystal form after drying under vacuum overnight [1]: converted to Form D

CC[C@H](C)C(=O)O[C@H]1C[C@H](O)C=C2C=C[C@H](C)[C@H](CC[C@@H](O)C[C@@H](O)CC(=O)O)[C@H]21 [Form I, pravastatin sodium]
crystal form after drying under vacuum overnight [1]: transformed to Form D
